Tests used:
patients with T2DM [1] = assay: Example 1 study: gastric emptying (acetaminophen PK); assay type: in vivo, human
From the text: Acetaminophen is a well-established marker for the rate and extent of gastric emptying. It is rapidly absorbed from the duodenum upon release from the stomach. A delay in gastric emptying is reflected in the alterations to the concentration-time profile of acetaminophen, specifically, decreasing its Cmax and increasing time of maximum observed drug concentration (tmax) without altering the extent (total drug amount) absorbed. An oral solution dose of approximately 1 g acetaminophen is considered to be sufficient for bioanalytical detection and is administered as indicated below in respect of Cohorts 1 and 2. […] Concentrations of acetaminophen are assayed using a validated LC/MS method. Bioanalytical samples collected to measure acetaminophen concentrations are retained for a maximum of 2 years following last patient visit for the study.
In respect of Cohort 1, gastric emptying is assessed at baseline and Days 2 and 79.
In respect of Cohort 2, gastric emptying is assessed at baseline and Days 2 and 107.
The PK parameters of acetaminophen were compared between treatment groups to determine the rate and extent of gastric emptying. Prior to dosing with Compound 1, the PK profiles of acetaminophen on Day −1 were similar between the treatment groups. Within treatment groups, the Cmax of acetaminophen decreased from Day −1 during 12 weeks of multiple dosing with Compound 1. The Cmax of acetaminophen was lowest on Day 2 in both treatment groups. However, the change from baseline Cmax of acetaminophen increased at Day 107.

patients with T2DM [2] = assay: Example 1 study: adverse events; assay type: in vivo
From the text: Investigators are responsible for monitoring the safety of patients who have entered this study. The investigator is responsible for the appropriate medical care of patients during the study. Investigators document their review of each laboratory safety report. The investigator remains responsible for following, through an appropriate health care option,
AEs that are serious or otherwise medically important, considered related to Compound 1 or the study, or that caused the patient to discontinue Compound 1 before completing the study. The patient is followed until the event resolves, stabilizes with appropriate diagnostic evaluation, or is reasonably explained. The frequency of follow-up evaluations of the AE is left to the discretion of the investigator.
The investigator records all relevant AE and SAE information. After receiving consent from the patient, study site personnel record the occurrence and nature of each patient's preexisting conditions, including clinically significant signs and symptoms of the disease under treatment in the study. Additionally, site personnel record any change in the condition(s) and the occurrence and nature of any AEs.
The investigator interprets and document whether or not an AE has a reasonable possibility of being related to study treatment, or a study procedure, taking into account the disease, concomitant treatment, or pathologies.
A “reasonable possibility” means that there is a potential cause and effect relationship between Compound 1, study device, and/or study procedure and the AE. Planned surgeries should not be reported as AEs unless the underlying medical condition has worsened during the course of the study.
A Serious Adverse Event (SAE) is any AE from this study that results in one of the following: • death • initial or prolonged inpatient hospitalization • a life-threatening experience (i.e., immediate risk of dying) • persistent or significant disability/incapacity • congenital anomaly/birth defect • important medical events that may not be immediately life-threatening or result in death or hospitalization but may jeopardize the patient or may require intervention to prevent one of the other outcomes listed in the definition above.
All AEs occurring after signing the ICF are recorded and assessed for serious criteria.

individuals with obesity = assay: Example 2 multiple ascending dose study in obesity: body weight, waist circumference; assay type: in vivo, human
From the text: This study is designed to evaluate the safety, tolerability, PD and PK of dose to higher doses of Compound 1 in individuals with obesity. The Multiple Ascending Dose (MAD) study is a randomized, investigator- and participant-blind, placebo-controlled, multiple-ascending dose, single- or multi-site study conducted in individuals with obesity (i.e., females or males aged 18-70 years, inclusive, a BMI in the range of 27 kg/m^2 to 50 kg/m^2). Participants should have stable body weight for at least 3 months prior to the initiation of the study. Dose of Compound 1 is assessed with weekly dosing over 20 weeks in 2 cohorts. Each cohort comprises 12 patients-nine patients are administered Compound 1 and three patients are administered placebo. The dose for Cohort 1 is as follows: • 1.5 mg Compound 1 for 2 weeks; • 3.0 mg Compound 1 for 2 weeks; • 6.0 mg Compound 1 for 4 weeks; • 8.0 mg Compound 1 for 4 weeks; • 12.0 mg Compound 1 for 4 weeks; and • 16.0 mg Compound 1 for 4 weeks. The dose for Cohort 2 is as follows: • 2.0 mg Compound 1 for 3 weeks; • 4.0 mg Compound 1 for 3 weeks; • 6.0 mg Compound 1 for 3 weeks; • 8.0 mg Compound 1 for 3 weeks; • 10.0 mg Compound 1 for 2 weeks; • 13.0 mg Compound 1 for 2 weeks, and • 16.0 mg Compound 1 for 4 weeks. Body weight and waist circumference are measured at frequent intervals across dose from Day 1 through Day 138 and for an extended follow-up period after the conclusion of dosing. Mean absolute and percent change in body weight are calculated for Compound 1 and for placebo arms within each cohort and compared to baseline at multiple time points from Day 1 through Day 138 and throughout the extended follow-up period after the conclusion of dosing. Mean absolute and percent change in waist circumference are calculated for Compound 1 and for placebo arms within each cohort and compared to baseline at multiple time points from Day 1 through Day 138 and throughout the extended follow-up period after the conclusion of dosing. While the weight loss described in Example 1 is in a T2D patient population, greater weight loss is typical in an obesity patient population. A multiplier of 1.6-1.8 may be applied to percent weight loss moving from the T2D population to an obesity population.

Which results are given for `CC(C)C[C@H](NC(=O)[C@H](CC(C)C)NC(=O)[C@H](Cc1c[nH]c2ccccc12)NC(=O)[C@H](CCC(=O)O)NC(=O)[C@@H](NC(=O)[C@H](Cc1ccccc1)NC(=O)[C@H](CCC(=O)O)NC(=O)[C@H](CCCCNC(=O)COCCOCCNC(=O)COCCOCCNC(=O)CC[C@H](NC(=O)CCCCCCCCCCCCCCCCCCC(=O)O)C(=O)O)NC(=O)[C@H](C)NC(=O)[C@H](CCCCN)NC(=O)[C@H](CCCCN)NC(=O)[C@H](CCC(=O)O)NC(=O)[C@H](CC(=O)O)NC(=O)[C@H](CC(C)C)NC(=O)[C@H](Cc1ccc(O)cc1)NC(=O)[C@H](CCCCN)NC(=O)[C@H](CO)NC(=O)[C@H](Cc1ccc(O)cc1)NC(=O)[C@H](CC(=O)O)NC(=O)[C@H](CO)NC(=O)[C@@H](NC(=O)[C@H](Cc1ccccc1)NC(=O)[C@@H](NC(=O)CNC(=O)[C@H](CCC(N)=O)NC(=O)C(C)(C)NC(=O)[C@@H](N)Cc1c[nH]cn1)[C@@H](C)O)[C@@H](C)O)C(C)C)C(=O)N[C@@H](CCC(=O)O)C(=O)NCC(=O)NCC(=O)N1CCC[C@H]1C(=O)N[C@@H](CO)C(=O)N[C@@H](CO)C(=O)NCC(N)=O` [Compound 1]?
acetaminophen Cmax, Change From Baseline (Est % change) (patients with T2DM [1]; Cohort 1, Day 2): (0.83) %; acetaminophen tmax, Change From Baseline (Est % change) (patients with T2DM [1]; Cohort 1, Day 2): (1.06) %; acetaminophen tmax (patients with T2DM [1]; Cohort 1, Day 2, Day −1 2.671): 1.963 h; acetaminophen Cmax, Change From Baseline (Est % change) (patients with T2DM [1]; Cohort 1, Day 79): (0.9) %; acetaminophen tmax (patients with T2DM [1]; Cohort 1, Day 79): 1.478 h; acetaminophen tmax, Change From Baseline (Est % change) (patients with T2DM [1]; Cohort 1, Day 79): (0.8) %; acetaminophen Cmax, Change From Baseline (Est % change) (patients with T2DM [1]; Cohort 2, Day 2): (0.79) %; acetaminophen tmax, Change From Baseline (Est % change) (patients with T2DM [1]; Cohort 2, Day 2): (0.89) %; acetaminophen tmax, Change From Baseline, Mean (patients with T2DM [1]; Cohort 2, Day 2): 0.187 h; acetaminophen tmax (patients with T2DM [1]; Cohort 2, Day 2, Day −1 1.214): 1.423 h; acetaminophen Cmax, Change From Baseline (Est % change) (patients with T2DM [1]; Cohort 2, Day 107): (1.18) %; acetaminophen tmax (patients with T2DM [1]; Cohort 2, Day 107): 0.909 h; acetaminophen tmax, Change From Baseline (Est % change) (patients with T2DM [1]; Cohort 2, Day 107): (0.89) %; acetaminophen tmax, Change From Baseline, Mean (patients with T2DM [1]; Cohort 2, Day 107): 0.75 h; SAE reported, MedDRA preferred term (patients with T2DM [2]; in vivo): Sarcoidosis; abdominal pain, number of participants (patients with T2DM [2]; in vivo): 1; abdominal pain, percentage of participants (patients with T2DM [2]; in vivo): 5.6%; constipation, number of participants (patients with T2DM [2]; in vivo): 2; constipation, percentage of participants (patients with T2DM [2]; in vivo): 11.1%; diarrhea, number of participants (patients with T2DM [2]; in vivo): 4; diarrhea, percentage of participants (patients with T2DM [2]; in vivo): 22.2%; eructation, number of participants (patients with T2DM [2]; in vivo): 4; eructation, percentage of participants (patients with T2DM [2]; in vivo): 22.2%; nausea, number of participants (patients with T2DM [2]; in vivo): 7; nausea, percentage of participants (patients with T2DM [2]; in vivo): 38.9%; number of patients treated with study intervention reporting an SAE (patients with T2DM [2]; in vivo): 1; number of patients with TEAEs (patients with T2DM [2]; in vivo): 17; vomiting, number of participants (patients with T2DM [2]; in vivo): 5; vomiting, percentage of participants (patients with T2DM [2]; in vivo): 27.8%; deaths (patients with T2DM [2]; whole study): No deaths occurred; mean waist circumference change (individuals with obesity; Ex. 2 Cohort 1, Day 85/12 weeks (after 4 weeks of 8 mg), placebo +0.04%): −5.2%; mean percent change from baseline in body weight (individuals with obesity; Ex. 2 Cohort 1, Day 113/16 weeks, after 4 weeks of 12 mg, placebo +0.7%): −15.4%; mean waist circumference change (individuals with obesity; Ex. 2 Cohort 1, Day 113/16 weeks, after 4 weeks of 12 mg, placebo +1.3%): −6.3%; mean waist circumference change (individuals with obesity; Ex. 2 Cohort 1, Day 138/20 weeks, after 4 weeks of 16 mg, placebo +0.4%): −11.5%; mean waist circumference change (individuals with obesity; Ex. 2 Cohort 2, Day 85/12 weeks (after 8 mg), placebo +0.04%): −7.6%; mean percent change from baseline in body weight (individuals with obesity; Ex. 2 Cohort 2, Day 85/12 weeks (after 8 mg), placebo +0.2%): −11.7%; mean percent change from baseline in body weight (individuals with obesity; Ex. 2 Cohort 2, Day 99/14 weeks, after 2 weeks of 10 mg, placebo +0.07%): −13.4%; mean waist circumference change (individuals with obesity; Ex. 2 Cohort 2, Day 99/14 weeks, after 2 weeks of 10 mg, placebo +1.0%): −6.8%; mean percent change from baseline in body weight (individuals with obesity; Ex. 2 Cohort 2, Day 113/16 weeks, after 2 weeks of 13 mg, placebo +0.7%): −16.2%; mean waist circumference change (individuals with obesity; Ex. 2 Cohort 2, Day 113/16 weeks, after 2 weeks of 13 mg, placebo +1.3%): −12.6%; mean waist circumference change (individuals with obesity; Ex. 2 Cohort 2, Day 138/20 weeks, after 4 weeks of 16 mg, placebo +0.4%): −16.6%
